The nature of this data set: Powder characteristics (Carr index, anti-caking property, fluidity) by intelligent powder comprehensive characteristic tester. It is filed as physicochemical. More on the design: key to Fluidity: Good: “good” means good solid state and good fluidity, which is favorable for formulation development; Less good: “less good” means average fluidity; Poor: “poor” means poor fluidity, which cannot be used for formulation development; key to Anti-caking property: Good: “good” means substantially no agglomeration or clumping; Less good: “less good” means partial clumping or agglomeration; Poor: “poor” means severe or complete clumping. From the text: The performance of the drug powder is influenced by various factors, among which the fluidity, anti-caking property and the like of the starting material drug (i.e., active pharmaceutical ingredient) play a key role in the formulation design, the quality control, the process design, the industrial production and the like of the drug. In the pharmaceutical field, poor fluidity mainly affects the uniformity of the mixed material, and such mixed material is easy to delaminate and has uneven material content; at the same time, the resulting tablet are easy to delaminate during tableting, resulting in inconsistent content of the tablet pressed at different times, and it is easy to cause a significant difference in tablet weight.
The fluidity, the anti-caking property and the like of compound 1 (i.e., (6E)-6-[(6-chloro-2-methyl-2H-indazol-5-yl)imino]-3-[(1-methyl-1H-1,2,4-triazol-3-yl)methyl]-1-(2,4,5-trifluorobenzyl)-1,3,5-triazinane-2,4-dione with different purities) in the above Comparative Examples 1-2 and Examples 1-12 were measured by an intelligent powder comprehensive characteristic tester (HMKTest LABULK, model: HMKFlow 6393 PT1000).
The Carr index reflects the quality of the fluidity, and a smaller value indicates better fluidity, while a Carr index of more than 23% generally indicates poor fluidity. For anti-caking property, “good” means substantially no agglomeration or clumping, “less good” means partial clumping or agglomeration, and “poor” means severe or complete clumping. For fluidity, “good” means good solid state and good fluidity, which is favorable for formulation development; “less good” means average fluidity; and “poor” means poor fluidity, which cannot be used for formulation development.
Similarly, the fluidity of the fumarate salt solid form of compound 1 prepared in the above Examples 28-29 and Comparative Example 3 was measured.

[1] abbreviates: solid form of compound 1, smaller value = better fluidity, more than 23% generally indicates poor fluidity.
Where [2] appears, read: fumarate salt solid form of compound 1.

Regarding `Cn1cnc(Cn2c(=O)[nH]/c(=N\c3cc4cn(C)nc4cc3Cl)n(Cc3cc(F)c(F)cc3F)c2=O)n1` [Example 2, (6E)-6-[(6-chloro-2-methyl-2H-indazol-5-yl)imino]-3-[(1-methyl-1H-1,2,4-triazol-3-yl)methyl]-1-(2,4,5-trifluorobenzyl)-1,3,5-triazinane-2,4-dione], for the setting “solid form of compound 1”, the Anti-caking property result is given as “Less good” and the Fluidity result is given as “Good”. Further, the “Carr index (%)” value under setting [1] stood at 20.7%.

For the compound `Cn1cnc(Cn2c(=O)[nH]/c(=N\c3cc4cn(C)nc4cc3Cl)n(Cc3cc(F)c(F)cc3F)c2=O)n1` [Comparative Example 3, (6E)-6-[(6-chloro-2-methyl-2H-indazol-5-yl)imino]-3-[(1-methyl-1H-1,2,4-triazol-3-yl)methyl]-1-(2,4,5-trifluorobenzyl)-1,3,5-triazinane-2,4-dione, reference compound], under setting [2], the Anti-caking property entry was “poor and Poor”; the “Carr index (%)” value amounted to 36.1%; the Fluidity entry is “poor and Poor”.

Regarding `Cn1cnc(Cn2c(=O)[nH]/c(=N\c3cc4cn(C)nc4cc3Cl)n(Cc3cc(F)c(F)cc3F)c2=O)n1` [Example 7, (6E)-6-[(6-chloro-2-methyl-2H-indazol-5-yl)imino]-3-[(1-methyl-1H-1,2,4-triazol-3-yl)methyl]-1-(2,4,5-trifluorobenzyl)-1,3,5-triazinane-2,4-dione], for the setting “solid form of compound 1”, the Anti-caking property result is on record as “Less good” and the Fluidity entry is “Good”. In addition, under setting [1], the “Carr index (%)” value amounted to 17.1%.

For `Cn1cnc(Cn2c(=O)[nH]/c(=N\c3cc4cn(C)nc4cc3Cl)n(Cc3cc(F)c(F)cc3F)c2=O)n1` [Comparative Example 1, (6E)-6-[(6-chloro-2-methyl-2H-indazol-5-yl)imino]-3-[(1-methyl-1H-1,2,4-triazol-3-yl)methyl]-1-(2,4,5-trifluorobenzyl)-1,3,5-triazinane-2,4-dione, reference compound], where the note is “solid form of compound 1”, the Anti-caking property entry is reported as “Poor” and the Fluidity entry is reported as “Poor”. Further, under setting [1], the “Carr index (%)” value is reported as 42.1%.

As for `Cn1cnc(Cn2c(=O)[nH]/c(=N\c3cc4cn(C)nc4cc3Cl)n(Cc3cc(F)c(F)cc3F)c2=O)n1` [Example 5, (6E)-6-[(6-chloro-2-methyl-2H-indazol-5-yl)imino]-3-[(1-methyl-1H-1,2,4-triazol-3-yl)methyl]-1-(2,4,5-trifluorobenzyl)-1,3,5-triazinane-2,4-dione], where the note is “solid form of compound 1”, the Anti-caking property result is recorded as “Less good” and the Fluidity entry is “Good”. Further, the “Carr index (%)” value under setting [1] came out at 18.8%.

For the compound `Cn1cnc(Cn2c(=O)[nH]/c(=N\c3cc4cn(C)nc4cc3Cl)n(Cc3cc(F)c(F)cc3F)c2=O)n1` [Example 6, (6E)-6-[(6-chloro-2-methyl-2H-indazol-5-yl)imino]-3-[(1-methyl-1H-1,2,4-triazol-3-yl)methyl]-1-(2,4,5-trifluorobenzyl)-1,3,5-triazinane-2,4-dione], under “solid form of compound 1”, the Anti-caking property entry was “Less good” and the Fluidity entry was “Good”. Under setting [1], the “Carr index (%)” value is on record as 18.5%.

On to `Cn1cnc(Cn2c(=O)[nH]/c(=N\c3cc4cn(C)nc4cc3Cl)n(Cc3cc(F)c(F)cc3F)c2=O)n1` [Example 4, (6E)-6-[(6-chloro-2-methyl-2H-indazol-5-yl)imino]-3-[(1-methyl-1H-1,2,4-triazol-3-yl)methyl]-1-(2,4,5-trifluorobenzyl)-1,3,5-triazinane-2,4-dione], for which, under “solid form of compound 1”, the Anti-caking property result is on record as “Less good” and the Fluidity entry is “Good”. Further, the “Carr index (%)” value under setting [1] is recorded as 19.4%.

Take `Cn1cnc(Cn2c(=O)[nH]/c(=N\c3cc4cn(C)nc4cc3Cl)n(Cc3cc(F)c(F)cc3F)c2=O)n1` [Example 29, (6E)-6-[(6-chloro-2-methyl-2H-indazol-5-yl)imino]-3-[(1-methyl-1H-1,2,4-triazol-3-yl)methyl]-1-(2,4,5-trifluorobenzyl)-1,3,5-triazinane-2,4-dione]: under setting [2], the Anti-caking property result is “Less good”, the “Carr index (%)” value stood at 12.1% and the Fluidity entry was “Good”.

Turning to `Cn1cnc(Cn2c(=O)[nH]/c(=N\c3cc4cn(C)nc4cc3Cl)n(Cc3cc(F)c(F)cc3F)c2=O)n1` [Example 9, (6E)-6-[(6-chloro-2-methyl-2H-indazol-5-yl)imino]-3-[(1-methyl-1H-1,2,4-triazol-3-yl)methyl]-1-(2,4,5-trifluorobenzyl)-1,3,5-triazinane-2,4-dione], where the note is “solid form of compound 1”, the Anti-caking property result was “Good” and the Fluidity result is on record as “Good”. Under setting [1], the “Carr index (%)” value is reported as 12.6%.

Turning to `Cn1cnc(Cn2c(=O)[nH]/c(=N\c3cc4cn(C)nc4cc3Cl)n(Cc3cc(F)c(F)cc3F)c2=O)n1` [Example 3, (6E)-6-[(6-chloro-2-methyl-2H-indazol-5-yl)imino]-3-[(1-methyl-1H-1,2,4-triazol-3-yl)methyl]-1-(2,4,5-trifluorobenzyl)-1,3,5-triazinane-2,4-dione], where the note is “solid form of compound 1”, the Anti-caking property entry is on record as “Less good” and the Fluidity entry was “Good”. Moreover, under setting [1], the “Carr index (%)” value is given as 18.7%.

Take `Cn1cnc(Cn2c(=O)[nH]/c(=N\c3cc4cn(C)nc4cc3Cl)n(Cc3cc(F)c(F)cc3F)c2=O)n1` [Example 11, (6E)-6-[(6-chloro-2-methyl-2H-indazol-5-yl)imino]-3-[(1-methyl-1H-1,2,4-triazol-3-yl)methyl]-1-(2,4,5-trifluorobenzyl)-1,3,5-triazinane-2,4-dione]: where the note is “solid form of compound 1”, the Anti-caking property result was “Good” and the Fluidity result is “Good”. In addition, under setting [1], the “Carr index (%)” value worked out at 14.1%.

On to `Cn1cnc(Cn2c(=O)[nH]/c(=N\c3cc4cn(C)nc4cc3Cl)n(Cc3cc(F)c(F)cc3F)c2=O)n1` [Example 12, (6E)-6-[(6-chloro-2-methyl-2H-indazol-5-yl)imino]-3-[(1-methyl-1H-1,2,4-triazol-3-yl)methyl]-1-(2,4,5-trifluorobenzyl)-1,3,5-triazinane-2,4-dione], for which, for the setting “solid form of compound 1”, the Anti-caking property result is given as “Good” and the Fluidity result is “Good”. Also, under setting [1], the “Carr index (%)” value was 15.1%.

Consider `Cn1cnc(Cn2c(=O)[nH]/c(=N\c3cc4cn(C)nc4cc3Cl)n(Cc3cc(F)c(F)cc3F)c2=O)n1` [Example 10, (6E)-6-[(6-chloro-2-methyl-2H-indazol-5-yl)imino]-3-[(1-methyl-1H-1,2,4-triazol-3-yl)methyl]-1-(2,4,5-trifluorobenzyl)-1,3,5-triazinane-2,4-dione], for which, under “solid form of compound 1”, the Anti-caking property entry is “Good” and the Fluidity entry is “Good”. In addition, the “Carr index (%)” value under setting [1] came to 13.4%.

As for `Cn1cnc(Cn2c(=O)[nH]/c(=N\c3cc4cn(C)nc4cc3Cl)n(Cc3cc(F)c(F)cc3F)c2=O)n1.O=C(O)/C=C/C(=O)O` [Example 28, (6E)-6-[(6-chloro-2-methyl-2H-indazol-5-yl)imino]-3-[(1-methyl-1H-1,2,4-triazol-3-yl)methyl]-1-(2,4,5-trifluorobenzyl)-1,3,5-triazinane-2,4-dione fumarate salt], under setting [2], the Anti-caking property result was “Good”, the “Carr index (%)” value is 11.3% and the Fluidity entry is on record as “Good”.

For `Cn1cnc(Cn2c(=O)[nH]/c(=N\c3cc4cn(C)nc4cc3Cl)n(Cc3cc(F)c(F)cc3F)c2=O)n1` [Comparative Example 2, (6E)-6-[(6-chloro-2-methyl-2H-indazol-5-yl)imino]-3-[(1-methyl-1H-1,2,4-triazol-3-yl)methyl]-1-(2,4,5-trifluorobenzyl)-1,3,5-triazinane-2,4-dione, reference compound], where the note is “solid form of compound 1”, the Anti-caking property entry was “Poor” and the Fluidity entry is listed as “Poor”. Besides, the “Carr index (%)” value under setting [1] turned out to be 39.4%.

With `Cn1cnc(Cn2c(=O)[nH]/c(=N\c3cc4cn(C)nc4cc3Cl)n(Cc3cc(F)c(F)cc3F)c2=O)n1` [Example 1, (6E)-6-[(6-chloro-2-methyl-2H-indazol-5-yl)imino]-3-[(1-methyl-1H-1,2,4-triazol-3-yl)methyl]-1-(2,4,5-trifluorobenzyl)-1,3,5-triazinane-2,4-dione], for the setting “solid form of compound 1”, the Anti-caking property result is recorded as “Less good” and the Fluidity entry is listed as “Good”. Further, the “Carr index (%)” value under setting [1] is listed as 21.4%.

Consider `Cn1cnc(Cn2c(=O)[nH]/c(=N\c3cc4cn(C)nc4cc3Cl)n(Cc3cc(F)c(F)cc3F)c2=O)n1` [Example 8, (6E)-6-[(6-chloro-2-methyl-2H-indazol-5-yl)imino]-3-[(1-methyl-1H-1,2,4-triazol-3-yl)methyl]-1-(2,4,5-trifluorobenzyl)-1,3,5-triazinane-2,4-dione], for which, under “solid form of compound 1”, the Anti-caking property result is “Less good” and the Fluidity result is “Good”. The “Carr index (%)” value under setting [1] was 21.2%.

Values taken from patent US11840526B2, “Compounds and method for preparing the same” (BEIJING GRAND JOHAMU PHARMACEUTICAL COMPANY, LTD., priority 2022, dated 2023).
